≈ marks a conversion by molar mass, not a printed value.
Legend:
[1] = Solubility of compound in PBS; format: physicochemical
[2] = Induction of mitophagy in human HeLa MKYP cells treated at 6.3 uM with FCCP/oligomycin for 6 hrs and measured by FACS analysis relative to control; format: functional; conditions: 6 h, 6.3 µM
[3] = Induction of mitophagy in human HeLa MKYP cells treated with FCCP/oligomycin for 6 hrs and measured by FACS analysis; format: functional, cell-based
HeLa [4] = test: Cytotoxicity against human HeLa MKYP cells assessed as percentage of DAPI-positive cells at 50 uM and measured by DAPI staining method; format: toxicity, cell-based
HeLa [5] = test: Cytotoxicity against human HeLa MKYP cells assessed as cell death at 25 uM treated with FCCP/oliogmycin and measured DAPI staining method assay relative to control; format: toxicity, cell-based
HeLa [6] = test: Cytotoxicity against human HeLa MKYP cells assessed as cell death at 25 uM and measured DAPI staining method assay relative to control; format: toxicity, cell-based
[7] = Ratio of highest compound concentration with no observable mitotoxicity to EC50 of compound to induce mitophagy in human HeLa MKYP cells; format: functional
[8] = Cmax in mouse at 1 mg/kg, iv; format: ADME, organism-based; design: route intravenous, dose 1 mg/kg; conditions: in vivo
[9] = Observed AUC in mouse at 1 mg/kg, iv; format: ADME, organism-based; design: dose 1 mg/kg; conditions: in vivo
[10] = AUC in mouse at 1 mg/kg, iv; format: ADME, organism-based; design: dose 1 mg/kg; conditions: in vivo
[11] = Cmax in mouse at 10 mg/kg, po; format: ADME, organism-based; design: route oral, dose 10 mg/kg; conditions: in vivo
[12] = Half-life in mouse at 10 mg/kg, po; format: ADME, organism-based; conditions: in vivo
[13] = AUC in mouse at 10 mg/kg, po; format: ADME, organism-based; design: dose 10 mg/kg; conditions: in vivo
[14] = Oral bioavailability in mouse at 10 mg/kg; format: ADME, organism-based; conditions: in vivo
[15] = Cmax in mouse at 50 mg/kg, po; format: ADME, organism-based; design: route oral, dose 50 mg/kg; conditions: in vivo
[16] = Half-life in mouse at 50 mg/kg, po; format: ADME, organism-based; conditions: in vivo
[17] = Observed AUC in mouse 50 mg/kg, po; format: ADME, organism-based; design: dose 50 mg/kg; conditions: in vivo
[18] = AUC in mouse at 50 mg/kg, po; format: ADME, organism-based; design: dose 50 mg/kg; conditions: in vivo
[19] = Oral bioavailability in mouse at 50 mg/kg; format: ADME, organism-based; conditions: in vivo
[20] = AUC (infinity) in mouse at 1 mg/kg, iv; format: ADME, organism-based; design: route intravenous, time infinity, dose 1 mg/kg; conditions: in vivo
[21] = AUC (extrapolated) in mouse at 1 mg/kg, iv; format: ADME, organism-based; conditions: in vivo
[22] = MRT (infinity) in mouse at 1 mg/kg, iv; format: ADME, organism-based; conditions: in vivo
[23] = AUC (infinity) in rat at 1 mg/kg, iv; format: ADME, organism-based; design: route intravenous, time infinity, dose 1 mg/kg; conditions: in vivo
[24] = AUC (extrapolated) in rat at 1 mg/kg, iv; format: ADME, organism-based; conditions: in vivo
[25] = MRT (infinity) in rat at 1 mg/kg, iv; format: ADME, organism-based; conditions: in vivo
[26] = Initial plasma concentration in mouse at 10 mg/kg, po; format: ADME, organism-based; conditions: in vivo
[27] = AUC (infinity) in mouse at 10 mg/kg, po; format: ADME, organism-based; design: route oral, time infinity, dose 10 mg/kg; conditions: in vivo
[28] = Apparent volume of distribution in mouse at 10 mg/kg, po; format: ADME, organism-based; conditions: in vivo
[29] = MRT (infinity) in mouse at 10 mg/kg, po; format: ADME, organism-based; conditions: in vivo
[30] = Initial plasma concentration in rat at 10 mg/kg, po; format: ADME, organism-based; conditions: in vivo
[31] = AUC (infinity) in rat at 10 mg/kg, po; format: ADME, organism-based; design: time infinity, route oral, dose 10 mg/kg; conditions: in vivo
[32] = Apparent volume of distribution in rat at 10 mg/kg, po; format: ADME, organism-based; conditions: in vivo
[33] = Brain concentration in mouse at 10 mg/kg, po measured at 0.5 hrs; format: ADME, organism-based; conditions: read-out: Drug uptake
[34] = Brain concentration in mouse at 10 mg/kg, po measured at 1 hr; format: ADME, organism-based; conditions: read-out: Drug uptake
[35] = Brain concentration in mouse at 10 mg/kg, po measured at 2 hrs; format: ADME, organism-based; conditions: read-out: Drug uptake
[36] = Plasma concentration in mouse at 10 mg/kg, po measured at 0.5 hrs; format: ADME, organism-based
[37] = Plasma concentration in mouse at 10 mg/kg, po measured at 1 hr; format: ADME, organism-based
[38] = Plasma concentration in mouse at 10 mg/kg, po measured at 2 hrs; format: ADME, organism-based
[39] = Kidney concentration in mouse at 10 mg/kg, po measured at 0.5 hrs; format: ADME, organism-based; conditions: read-out: Drug uptake
[40] = Kidney concentration in mouse at 10 mg/kg, po measured at 1 hr; format: ADME, organism-based; conditions: read-out: Drug uptake
[41] = Kidney concentration in mouse at 10 mg/kg, po measured at 2 hrs; format: ADME, organism-based; conditions: read-out: Drug uptake
[42] = Brain concentration in mouse at 50 mg/kg, po measured at 0.5 hrs; format: ADME, organism-based; conditions: read-out: Drug uptake
[43] = Brain concentration in mouse at 50 mg/kg, po measured at 1 hr; format: ADME, organism-based; conditions: read-out: Drug uptake
[44] = Brain concentration in mouse at 50 mg/kg, po measured at 2 hrs; format: ADME, organism-based; conditions: read-out: Drug uptake
[45] = Plasma concentration in mouse at 50 mg/kg, po measured at 0.5 hrs; format: ADME, organism-based
[46] = Plasma concentration in mouse at 50 mg/kg, po measured at 1 hr; format: ADME, organism-based
[47] = Plasma concentration in mouse at 50 mg/kg, po measured at 2 hrs; format: ADME, organism-based
[48] = Kidney concentration in mouse at 50 mg/kg, po measured at 0.5 hrs; format: ADME, organism-based; conditions: read-out: Drug uptake
[49] = Kidney concentration in mouse at 50 mg/kg, po measured at 1 hr; format: ADME, organism-based; conditions: read-out: Drug uptake
[50] = Kidney concentration in mouse at 50 mg/kg, po measured at 2 hrs; format: ADME, organism-based; conditions: read-out: Drug uptake
[51] = Half-life in rat at 10 mg/kg, po; format: ADME, organism-based; conditions: in vivo

Structure (SMILES): FC(F)(F)c1cc2c(NC3CCCc4ccccc43)ncnc2[nH]1 (stereo in doubt)
- solubility [1]: 1 µM (≈ 0.332 µg/mL)
- Activity [2]: 55.5%
- EC50 [3]: 440 nM
- Activity (HeLa [4]): 2.1%
- Activity (HeLa [5]): 10.7%
- Activity (HeLa [6]): 2.59%
- Ratio [7]: 40.02
- Cmax [8]: 1450 nM
- AUC [9]: 1.4 µM·h
- AUC [10]: 1.5 µM·h
- Cmax [11]: 1080 nM
- t1/2 [12]: 2 h
- AUC [13]: 2.6 µM·h
- bioavailability [14]: 17.4%
- Cmax [15]: 9800 nM
- half-life [16]: 3.9 h
- AUC [17]: 27.4 µM·h
- AUC [18]: 35.5 µM·h
- bioavailability [19]: 37.9%
- AUC(0-inf) [20]: 487 ng·h/mL
- %AUCextra [21]: 1.1%
- MRT inf [22]: 0.7 h
- AUC(0-inf) [23]: 838 ng·h/mL
- %AUCextra [24]: 2.5%
- MRT inf [25]: 2 h
- C0 [26]: 0.5 ng/mL
- AUC [27]: 803.3 ng·h/mL
- Vz [28]: 5.4 L/kg
- MRT inf [29]: 17.4 h
- C0 [30]: 2.6 ng/mL
- AUC [31]: 7348.4 ng·h/mL
- Vz [32]: 2.2 L/kg
- concentration at 0.5 h [33]: 526 ng/g
- concentration at 1 h [34]: 737 ng/g
- concentration at 2 h [35]: 435 ng/g
- concentration at 0.5 h [36]: 372 ng/g
- concentration at 1 h [37]: 276 ng/g
- concentration at 2 h [38]: 146 ng/g
- concentration at 0.5 h [39]: 1050 ng/g
- concentration at 1 h [40]: 1290 ng/g
- concentration at 2 h [41]: 893 ng/g
- concentration at 0.5 h [42]: 3340 ng/g
- concentration at 1 h [43]: 6370 ng/g
- concentration at 2 h [44]: 3980 ng/g
- concentration at 0.5 h [45]: 1900 ng/g
- concentration at 1 h [46]: 2080 ng/g
- concentration at 2 h [47]: 1420 ng/g
- concentration at 0.5 h [48]: 6430 ng/g
- concentration at 1 h [49]: 11500 ng/g
- concentration at 2 h [50]: 7480 ng/g
- t1/2 [51]: 3.7 h
